Values joined by “and” are separate entries in the source; they are usually repeats but may differ in a detail not shown here. Equal values may be shown once. Starred links: 1 amine or outer side, 2 acyl side, 3 side chain; linkers in the order of their positions; H or OH if unused. Positions of bridges follow the written chain, without caps; N, C: chain ends. Non-standard residues stand in square brackets, D forms with d. Residues, ends and D or L forms follow the SMILES beside them. Phe(4-F) = N[C@@H](Cc1ccc(F)cc1)C(=O)O; X1 = CCCCCCC[C@H](N[*:1])C(=O)[*:2]; Nle = CCCC[C@H](N)C(=O)O; X2 = C(C[*:1])C[*:2]; βAla = NCCC(=O)O
What was measured:
[1] = tested on: phosphorylation of ERK in PANC-1 cells; experiment: Erk-phosphorylation assay (Phospho-ERK1/ERK2 ELISA); type: cell-based, human; details: PANC-1, peptide 30 µM, n = 4, ± SEM
Procedure: (§1) A427 (ATCC HTB-53), A549 (ATCC CCL-185), H1975 (ATCC CRL-5908), PANC-1 (ATCC CRL-1469), MIA PaCa-2 (ATCC CRL-1420), and Capan-1 (ATCC HTB-79) cells were purchased from ATCC, and each cell was cultured in medium supplemented with 10% fetal bovine serum (FBS), according to the protocol recommended by the manufacture.
(§2) For evaluation of the effect of peptides on Ras–ERK pathways, phosphorylation of ERK was measured by Phospho-ERK1 (T202/Y204)/ERK2 (T185/Y187) DuoSet IC ELISA (DYC1018B-2, R&D SYSTEMS, MN, USA) according to the protocol supplied by the manufacturer. After 16 h serum starvation, cells were treated with peptides diluted in FBS-free medium for 1 h, and then treated with peptides diluted in FBS-containing medium for an additional 1 h. Phosphorylation rate of ERK (%) was calculated based on no serum stimulation as 0% and serum stimulation without peptide treatment as 100%.

[2] = tested on: phosphorylation of ERK in A427 cells; experiment: as above; type: cell-based, human; details: A427, peptide 30 µM, n = 4, ± SEM
Procedure: as §1, §2

[3] = target: T1, K-Ras(G12D)^GDP–SOS1 interaction (Homo sapiens, UniProt P01116, G12D); experiment: Intracellular PPI inhibition assay using NanoBiT in HEK293T cells; type: cell-based; details: peptide 30 µM, n = 4
T1 construct: host or cells: HEK293T
Procedure: (§3) Intracellular protein–protein interaction (PPI) inhibition assays were carried out using the NanoBiT system (Promega). Three kinds of plasmids with CMV promoters, which encodes human K-Ras(G12D) fusing SmBiT to the N-terminus, encodes human SOS1 fusing LgBiT to the C-terminus, and encodes human BRAF fusing LgBiT to the C-terminus, were prepared by Promega. Each combination of plasmids was transfected to HEK293T cells by FuGENE HD Reagent (E2312, […]). After 30 h incubation at 37 °C under 5% CO2, the cells were recovered, and seeded to 96-well tissue culture white plate with 10% FBS containing DMEM, and incubated overnight. Peptides were added to the plate and incubated for another 2 h. Nano-Glo (Promega, N2011) was directly added to the plate, and luminescence was immediately monitored. Intracellular K-Ras(G12D)^GDP–SOS1 and K-Ras(G12D)^GTP–BRAF interactions (%) were calculated based on no peptide treatment as 100% and only transfection of plasmid encoding LgBiT fusion protein as 0%.

[4] = target: T2, K-Ras(G12D)^GTP–BRAF interaction (Homo sapiens, UniProt P01116, G12D); experiment: as above; type: cell-based; details: peptide 30 µM, n = 4
T2 construct: host or cells: HEK293T
Procedure: as §3

Capan-1 cells = experiment: Cell proliferation assay (CellTiter-Glo, 72 h); type: cell-based, human; details: Capan-1 (G12V), peptide 30 µM, n = 4, ± SEM
Procedure: as §1
(§4) The effect of peptides on cell proliferation of A427, A549, H1975, PANC-1, MIA PaCa-2, and Capan-1 cells was determined by 72 h exposure to peptides. Cells were seeded at 1000 cells/well in 96-well tissue culture plates in each growth media and allowed to adhere overnight on day 0. Peptides were solved in DMSO and then diluted with each growth media for a constant final DMSO concentration of 0.5%. Media in the wells were removed and replaced with diluted peptide solutions, and cells were incubated for 3 days. During the incubation, medium containing the peptides was replaced every day. Relative cell numbers were estimated using CellTiter-Glo assay kit (G7570, Promega, WI, USA) according to the manufacturer’s instructions. Luminescence was detected using SpectraMax i3x (MOLECULAR DEVICES, CA, USA). Cell proliferation rate (%) was calculated based on cell numbers at day 0 as 0% and at day 3 without peptide treatment as 100%.

A427 cells = experiment: Cell proliferation assay (CellTiter-Glo, 72 h); type: cell-based, human; details: A427 (G12D), peptide 30 µM, n = 4, ± SEM
Procedure: as §1, §4

MIA PaCa-2 cells = experiment: Cell proliferation assay (CellTiter-Glo, 72 h); type: cell-based, human; details: MIA PaCa-2 (G12C), peptide 30 µM, n = 4, ± SEM
Procedure: as §1, §4

H1975 cells = experiment: Cell proliferation assay (CellTiter-Glo, 72 h); type: cell-based, human; details: H1975 (WT), peptide 30 µM, n = 4, ± SEM
Procedure: as §1, §4

PANC-1 cells = experiment: Cell proliferation assay (CellTiter-Glo, 72 h); type: cell-based, human; details: PANC-1 (G12D), peptide 30 µM, n = 4, ± SEM
Procedure: as §1, §4

A549 cells = experiment: Cell proliferation assay (CellTiter-Glo, 72 h); type: cell-based, human; details: A549 (G12S), peptide 30 µM, n = 4, ± SEM
Procedure: as §1, §4

[5] = tested on: PANC-1 orthotopic xenografts; experiment: Anti-cancer efficacy in PANC-1 orthotopic xenografts; type: in vivo, mice; details: 40 mg/kg iv once every 2 days for 4 weeks
Procedure: To establish orthotropic xenograft tumor models, 2.5 × 10^6 cells/50 µL of PANC-1 cells were injected into the pancreas of BALB/cAJcl-nu/nu male mice (8 weeks old; CLEA Japan, Inc.). KS-58 was dissolved in DMSO and then tenfold diluted by saline. The peptide solution was then injected intravenously to the mice bearing tumors once every 2 days for 4 weeks (40 mg/kg, n = 7). Organ weights of the pancreas, liver, and kidney were measured.

[6] = Stability of peptide in rat plasma (RP-HPLC); type: in vitro ADME
Procedure: The stability of KS-58 in rat plasma was also evaluated. The peptides were incubated with rat plasma at 37 °C for different time periods (0 and 24 h), and the remaining amount of peptide was then determined using RP-HPLC. By comparing the peak area of the peptide, the remaining amount of peptide after plasma incubation was roughly estimated.
Each peptide (10 mM, 1 μL) was incubated with rat plasma (20 μL) prepared in house. […] The mixture was stored for 10 min at 4 °C and centrifuged at 15,000 rpm for 10 min at 4 °C. The supernatant was recovered and was directly supplied to RP-HPLC to determine the remaining amount of unmodified peptides in the sample.

[7] = rat plasma, incubation time 0 h

Which results are given for CCCCCCC[C@@H]1NC(=O)[C@@H]2CSCCCSC[C@@H](NC(=O)[C@H](Cc3c[nH]c4ccccc34)NC(=O)[C@@H]3CCCN3C(=O)[C@H](CC(=O)O)NC(=O)[C@H](Cc3ccc(F)cc3)NC(=O)[C@H](CO)NC1=O)C(=O)NCCC(=O)N1CCC[C@H]1C(=O)N[C@@H](CCCC)C(=O)N2 [KS-58, c[βAla-Pro-Nle-c(Cys-Anon-Ser-4fF-Asp-Pro-Trp-^DCys)]] (cyclo([βAla]P[Nle]C[X1]S[Phe(4-F)]DPW[dC]); linker 4-11 via X2)?
pERK (%) [1]: 57.6% and 57.6 ± 7.6%; pERK (%) [2]: 26.0% and 26.0 ± 6.0%; Intracellular K-Ras(G12D)^GDP–SOS1 interaction (luminescence, %) [3]: 35.5%; Intracellular K-Ras(G12D)^GTP–BRAF interaction (luminescence, %) [4]: 53.8%; Cell proliferation (%) (Capan-1 cells): 94.9 ± 2.2%; Cell proliferation (%) (A427 cells): 21.1% and 21.1 ± 5.5%; Cell proliferation (%) (MIA PaCa-2 cells): 86.8 ± 2.3%; Cell proliferation (%) (H1975 cells): 92.7 ± 0.3%; Cell proliferation (%) (PANC-1 cells): 50.1% and 50.1 ± 4.1%; Cell proliferation (%) (A549 cells): 81.3 ± 1.5%; Adverse side effects (loss of body weight, organ swelling of liver and kidney) ([5]; both xenografts): without any adverse side effects; cell growth of PANC-1 (pancreas weight; Sham = 0%, vehicle = 100%) ([5]; orthotopic xenograft): 65%; Peak area value ([6]; Input (NT, no-serum treatment)): 491,842; recovery ([6]; input control without serum treatment, Input (NT, no-serum treatment), read-out: Recovery rate (%)): 100%; Stability in rat plasma (in words) ([6]; rat plasma, 37 °C, 24 h): remained intact for up to at least 24 h; Peak area value ([6]; rat plasma, 37 °C, incubation time 24 h): 467,142; recovery at 24 h, 0.476 mM ([6]; rat plasma, 37 °C, incubation time 24 h, read-out: Recovery rate (%)): 95%; remaining at 24 h, 0.476 mM ([6]; rat plasma, 37 °C, incubation time 24 h, read-out: Residual rate (%)): 98.6%; Peak area value [6, 7]: 473,575; Residual rate (%) [6, 7]: 100%; recovery at 0 h, 0.476 mM ([6]; rat plasma, incubation time 0 h, read-out: Recovery rate (%)): 96.3%

— paper PMC7730438, “Generation of KS-58 as the first K-Ras(G12D)-inhibitory peptide presenting anti-cancer activity in vivo” (Scientific Reports, 2020)
